These results are taken from ChEMBL document CHEMBL1201862, “PubChem BioAssay data set” (2004).

Each structure is given as a SMILES string.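 96-well plates; 48 h exposure; 5 concentrations. Endpoints by linear interpolation between flanking doses. Not reached: highest tested concentration assigned. GI50 marks 50% less growth.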 Calls of active or inactive are those of the source. No stated cut-off is given here; in the data, active = GI50 up to about 1.1 µM and inactive = higher.

Among the test systems are MDA-MB-435; IGROV-1; NCI-H23; LOX IMVI; SW-620; UACC-257; A498; COLO 205; SK-MEL-2; BT-549; HOP-92; SF-295; HCT-116; CCRF-CEM; HCT-15; OVCAR-5; HOP-62; OVCAR-4; PC-3; Malme-3M.
Common to all, as to assay: NCI anticancer screen, dose series, 48 h

Regarding `Nc1ccc(S(=O)(=O)NCc2nccs2)cc1`, the GI50 in the assay on MDA-MB-435 is 19.6 µM (inactive); with IGROV-1, 23.4 µM (inactive); with NCI-H23, 22.4 µM (inactive); in the assay with LOX IMVI, 19.9 µM (inactive); with SW-620, 30.5 µM (inactive); in the assay with UACC-257 it was 17.7 µM (inactive). The GI50 in the assay with A498 is 17.7 µM (inactive); in the assay with COLO 205, 18.4 µM (inactive); in the assay with SK-MEL-2 it was 20 µM (inactive); with BT-549, 20.1 µM (inactive); with HOP-92 it was 18.8 µM (inactive); in the assay with SF-295, 32 µM (inactive). Further, the GI50 is 19 µM (inactive) in the assay on HCT-116; 18.2 µM (inactive) in the assay with CCRF-CEM; 26.7 µM with HCT-15; 17.9 µM (inactive) in the assay with OVCAR-5; 36.8 µM (inactive) in the assay on HOP-62; 29.3 µM (inactive) in the assay on OVCAR-4. In addition, the GI50 with PC-3 was 30.1 µM (inactive).

As to `Nc1ccn([C@H]2CO[C@@H](CO)[C@@H]2O)c(=O)n1`, the GI50 with MDA-MB-435, with IGROV-1, in the assay with NCI-H23, in the assay on LOX IMVI, in the assay on SW-620 and in the assay with UACC-257 was > 100 µM (inactive) in each case. Besides, the GI50 in the assay on A498, with COLO 205, in the assay with SK-MEL-2, in the assay with BT-549, with HOP-92 and in the assay with SF-295 was > 100 µM (inactive) throughout. The GI50 in the assay with HCT-116 is > 100 µM (inactive); in the assay with CCRF-CEM, > 100 µM (inactive); in the assay on HCT-15, above 100 µM; in the assay on OVCAR-5, > 100 µM (inactive); with HOP-62 it was > 100 µM (inactive); in the assay with OVCAR-4, > 100 µM (inactive). Further, in the assay on PC-3, the GI50 was > 100 µM (inactive).

Regarding `O=C(O)c1nc2ccccc2nc1NCc1ccc(F)cc1`, the GI50 in the assay with MDA-MB-435 is > 100 µM (inactive); with IGROV-1 it was 46.6 µM (inactive); with NCI-H23, 54 µM (inactive); in the assay on LOX IMVI, 36.8 µM (inactive); in the assay with SW-620, 63.8 µM (inactive); with UACC-257, > 100 µM (inactive). For the same compound, the GI50 is > 100 µM (inactive) in the assay on A498; 31.9 µM (inactive) with COLO 205; 94.4 µM (inactive) in the assay with SK-MEL-2; > 100 µM (inactive) with BT-549; 95.1 µM (inactive) in the assay with HOP-92; 38 µM (inactive) with SF-295. Besides, the GI50 was 41.6 µM (inactive) in the assay with HCT-116; 50.5 µM (inactive) with CCRF-CEM; 16.6 µM in the assay on HCT-15; > 100 µM (inactive) in the assay on OVCAR-5; > 100 µM (inactive) in the assay on HOP-62; > 100 µM (inactive) in the assay on PC-3.

Regarding `O=c1oc2ccccc2c2c1Sc1ccccc1N2`, the GI50 was 96.4 µM (inactive) in the assay on MDA-MB-435; > 100 µM (inactive) in the assay on IGROV-1; 74.8 µM (inactive) in the assay with NCI-H23; > 100 µM (inactive) in the assay on LOX IMVI; > 100 µM (inactive) in the assay on SW-620; > 100 µM (inactive) in the assay on UACC-257. Moreover, the GI50 with A498 is > 100 µM (inactive); in the assay with COLO 205 it was > 100 µM (inactive); with SK-MEL-2, 2.58 µM (inactive); with BT-549 it was > 100 µM (inactive); in the assay on HOP-92, 12.7 µM (inactive); in the assay with SF-295, > 100 µM (inactive). Also, the GI50 in the assay with HCT-116 is 89.3 µM (inactive); in the assay with CCRF-CEM, 75.9 µM (inactive); in the assay with HCT-15, 36.2 µM; with OVCAR-5 it was > 100 µM (inactive); in the assay with HOP-62, > 100 µM (inactive); with OVCAR-4 it was 22.8 µM (inactive). Moreover, in the assay on PC-3, the GI50 was > 100 µM (inactive).

Regarding `O=c1[nH]c2nccn2c2c1SCCN2`, the GI50 with MDA-MB-435, in the assay with IGROV-1, with NCI-H23, with Malme-3M, with LOX IMVI and with SW-620 was > 100 µM (inactive) throughout. In addition, the GI50 with UACC-257, with A498, with COLO 205, with SK-MEL-2, in the assay on BT-549 and with SF-295 was > 100 µM (inactive) throughout. Moreover, the GI50 was > 100 µM (inactive) in the assay on HCT-116; > 100 µM (inactive) with CCRF-CEM; above 100 µM in the assay on HCT-15; > 100 µM (inactive) with OVCAR-5; > 100 µM (inactive) in the assay with HOP-62; > 100 µM (inactive) in the assay with OVCAR-4. In addition, the GI50 in the assay with PC-3 is > 100 µM (inactive).

On to `O=C(O)c1ccccc1/C=C1\Cc2ccccc2C1=O`, for which the GI50 with MDA-MB-435 was > 100 µM (inactive); in the assay with IGROV-1, > 100 µM (inactive); in the assay on NCI-H23, > 100 µM (inactive); in the assay with Malme-3M it was > 100 µM (inactive); with LOX IMVI, 91 µM (inactive); in the assay on SW-620 it was > 100 µM (inactive). Also, the GI50 with UACC-257 was > 100 µM (inactive); with A498, > 100 µM (inactive); with COLO 205, 48.4 µM (inactive); in the assay on SK-MEL-2 it was 67.1 µM (inactive); in the assay on BT-549, 19.3 µM (inactive); in the assay on SF-295 it was > 100 µM (inactive). The GI50 in the assay with HCT-116 was > 100 µM (inactive); with CCRF-CEM it was > 100 µM (inactive); in the assay on HCT-15, above 100 µM; in the assay on OVCAR-5, > 100 µM (inactive); with HOP-62, > 100 µM (inactive); in the assay with OVCAR-4, > 100 µM (inactive). Further, in the assay with PC-3, the GI50 was > 100 µM (inactive).

Consider `Cc1ccc(Nc2nc(C)c(C(=O)CC(=O)C(=O)Nc3c(C)cccc3C(C)(C)C)s2)cc1`, for which the GI50 in the assay with MDA-MB-435, in the assay with IGROV-1, with NCI-H23, in the assay on LOX IMVI, in the assay on SW-620 and in the assay on UACC-257 was > 100 µM (inactive) throughout. Also, the GI50 in the assay with A498, in the assay with COLO 205, in the assay with SK-MEL-2, in the assay with BT-549, with HOP-92 and in the assay with SF-295 was > 100 µM (inactive) throughout. For the same compound, the GI50 in the assay with HCT-116 is > 100 µM (inactive); with CCRF-CEM, > 100 µM (inactive); with HCT-15, above 100 µM; with OVCAR-5, > 100 µM (inactive); with HOP-62, 38.5 µM (inactive); with OVCAR-4, > 100 µM (inactive). For the same compound, the GI50 in the assay with PC-3 was > 100 µM (inactive).

With `CCOC(=O)c1nnsc1NC(=O)NCCCCCCn1c(=O)n(CCCCCCNC(=O)Nc2snnc2C(=O)OCC)c(=O)n(CCCCCCNC(=O)Nc2snnc2C(=O)OCC)c1=O`, the GI50 with MDA-MB-435 was 63.7 µM (inactive); with IGROV-1 it was 32.1 µM (inactive); in the assay on NCI-H23, 24.9 µM (inactive); in the assay with Malme-3M, 25.1 µM (inactive); in the assay with SW-620, 67.6 µM (inactive); in the assay on UACC-257, 85.3 µM (inactive). For the same compound, the GI50 was 67.1 µM (inactive) in the assay with A498; > 100 µM (inactive) in the assay with COLO 205; > 100 µM (inactive) in the assay on SK-MEL-2; 33 µM (inactive) with BT-549; 16.9 µM (inactive) in the assay with SF-295; 38.8 µM (inactive) in the assay with HCT-116. In addition, the GI50 in the assay with CCRF-CEM was 38.5 µM (inactive); in the assay with HCT-15, above 100 µM; with OVCAR-5, > 100 µM (inactive); in the assay on HOP-62, 25.4 µM (inactive); with OVCAR-4 it was 80 µM (inactive); with PC-3, 50.9 µM (inactive).

For the compound `COCN1C(=O)[C@@H]2C[C@@H](OC/C=C/CBr)CN2C(=O)c2ccccc21`, the GI50 with MDA-MB-435 was 14.9 µM (inactive); in the assay with IGROV-1 it was 9.23 µM (inactive); in the assay with NCI-H23 it was 23.2 µM (inactive); with Malme-3M it was 15.6 µM (inactive); with LOX IMVI, 2.04 µM (inactive); in the assay with SW-620, 13.9 µM (inactive). Besides, the GI50 was 16.5 µM (inactive) with UACC-257; 26.1 µM (inactive) in the assay with A498; 15.8 µM (inactive) in the assay on COLO 205; 29.7 µM (inactive) in the assay on SK-MEL-2; 26.7 µM (inactive) in the assay on BT-549; 22.3 µM (inactive) with SF-295. In addition, the GI50 was 13.2 µM (inactive) with HCT-116; 5.77 µM (inactive) in the assay with CCRF-CEM; 17.9 µM in the assay on HCT-15; 20.1 µM (inactive) in the assay with OVCAR-5; 22.7 µM (inactive) with HOP-62; 14.6 µM (inactive) with OVCAR-4. For the same compound, in the assay on PC-3, the GI50 was 17.1 µM (inactive).

In the case of `CON(C)C(=O)C(C)NC(=O)OC(C)(C)C` (configuration not stated), the GI50 in the assay on MDA-MB-435, in the assay on IGROV-1, in the assay with NCI-H23, with Malme-3M, in the assay with SW-620 and in the assay with UACC-257 was > 100 µM (inactive) throughout. For the same compound, the GI50 in the assay with A498, in the assay on COLO 205, in the assay on BT-549, in the assay with HOP-92, with SF-295 and with HCT-116 was > 100 µM (inactive) throughout. In addition, the GI50 was > 100 µM (inactive) in the assay with CCRF-CEM; above 100 µM in the assay with HCT-15; > 100 µM (inactive) in the assay with OVCAR-5; > 100 µM (inactive) in the assay on HOP-62; > 100 µM (inactive) in the assay with PC-3.

Consider `CCCCCCNC(=O)c1cc(C#Cc2cc(OC)ccc2OC)ccc1OC`, for which the GI50 is 2.75 µM (inactive) in the assay on MDA-MB-435; 72.1 µM (inactive) in the assay on IGROV-1; 47.4 µM (inactive) with NCI-H23; > 100 µM (inactive) in the assay on LOX IMVI; 8.49 µM (inactive) in the assay on SW-620; > 100 µM (inactive) in the assay on UACC-257. In addition, the GI50 in the assay on A498 is > 100 µM (inactive); in the assay with COLO 205 it was 55.3 µM (inactive); with SK-MEL-2, > 100 µM (inactive); in the assay on BT-549, 18.9 µM (inactive); with HOP-92, 9.77 µM (inactive); with SF-295, 51.9 µM (inactive). In addition, the GI50 in the assay on HCT-15 is 7.48 µM; in the assay on OVCAR-5, > 100 µM (inactive); with OVCAR-4, > 100 µM (inactive); in the assay with PC-3, 62.1 µM (inactive).
